Where no end group is shown, it is not given here.
Assays:
16HBE TJs [1] = test: Transepithelial electrical resistance (TER) of 16HBE tight junction barrier, peptides applied apically; format: cell-based, Human; conditions: for effect of unrelated peptides on TER: 2-12 μM; for drop in TER: 2.4 μM peptide; for recovery of barrier function (TER) after peptide removal: 0.024 to 12 μM, washout and further 24 h incubation; for barrier disruption by labeled peptides, measured by decreased TER: representative experiment (n=2)
Experimental: Before use, peptide fibrils were prepared in sterile, filtered phosphate buffered saline containing 0.12% Pluronic F-127® by sonication at 55° C. for 20 minutes. Peptide concentrations were determined by BCA assay (Pierce). 20× peptide stocks were prepared in 0.12% pluronic F-127/PBS, then diluted 20× into phosphate buffer, PBS or DMEM containing 1% heat-inactivated fetal bovine serum and incubated at 37° C. for 18-24 hours before cell exposure or biophysical analysis, maintaining a constant surfactant concentration (0.006% Pluoronic® F127) for vehicle and peptide samples.
(§1) Human bronchial epithelial cells (16HBE) were grown on collagen-coated polystyrene in DMEM containing 10% heat inactivated fetal bovine serum, 10 mM HEPES, penicillin, streptomycin, and amphotericin with fresh media every 2-3 days. Cells were plated at the indicated density and grown for the indicated period. Peptides were diluted 20× into DMEM (Gibco #31053 containing 2 mM L-glutamine but lacking phenol red) containing 1% heat-inactivated fetal bovine serum and incubated at 37° C. for 18 hours before exposure. Pluronic F-127 concentrations (0.006% in cell culture media) were consistent between vehicle controls and peptide-containing samples. Cells were acclimated to the same media for 18 hours before peptide exposure.
(§2) For transepithelial electrical resistance (TER) and permeability experiments, the results of which are shown in FIGS. 4A-4B, respectively, cells were plated at a density of 75,000 per 0.33 cm^2 transwell (Corning TW, […], polyester) and grown for 5-6 days before acclimation/peptide exposure. TER measurements were taken with chopstick electrodes using a World Precision Instruments voltohmeter, and are expressed as the measured (cellular resistance—resistance of a TW insert with no cells)/surface area of the TW insert. TER was measured before peptide exposure (time=0) and at the indicated time points thereafter. After the 24 hour measurement, a control TW was lysed with 1% Triton X-100. For permeability flux assay, 1/10 volume of 0.2% sodium fluorescein or a mixture of 40 kD FITC-dextran (600 μg/mL final apical concentration) and Alexafluor®-568 labeled Synagis monoclonal antibody was added to the apical chamber and cells were incubated at 37° C. for 30 minutes or 18 hours. Synagis monoclonal antibody was labeled with Alexafluor®-568-succinimidyl ester according to the manufacturer's instructions, unreacted fluorophor removed using centrifugal filtration, and labeled antibody resuspended in PBS containing FITC-labeled 40 kD dextran. Fluorescence in the basolateral media was read in a Tecan M1000 fluorescence plate reader using Greiner μ-clear bottom 384-well plates (λex=494 nm and λem=512 nm for fluorescein and FITC-dextran and λex=578 nm and λem=605 nm for Alexafluor®-568 using a 10 nm slit width). Error is presented as the standard error of the mean, and significance relative to the vehicle control indicated where P<0.05 using a two-tailed t-test. For TER and fluorescein permeability experiments, n=8. For barrier recovery after peptide washout and FD-40 and Alexafluor®-labeled monoclonal antibody (“AF-mAb”) permeability, n=4.
Human bronchial epithelial cells (16HBE) were used to model TJ barrier function. 16HBE cells develop a TJ barrier (transepithelial electrical resistance, TER=800-1500 Ω*cm^2 in 10% heat-inactivated calf serum) that persists for 14 days. 16HBE cells serve as a more robust epithelial TJ barrier model than primary human keratinocytes, which achieve varying degrees of terminal differentiation (e.g. TJ barrier function) and this declines within 24 hours. In the low serum media used for peptide exposure, 16HBE cells achieved 350-500 Ω*cm^2 TER which was stable for 3-4 days. Cell surface expression of Cldn1, Cldn4, Ocln, and ZO-1 were consistently observed by immunofluorescence staining (FIGS. 2A-2B).

[2] = for comparison; cited from earlier work
[3] = tested on: Cldn1 and Ocln localization in 16HBE cultures; test: Immunofluorescence of TJ proteins (Cldn1, Ocln) and labeled peptides in 16HBE cultures; format: cell-based, Human; conditions: for Cldn1 and Ocln localization: 12 hours after exposure; for co-localization of labeled peptide with endogenous Cldn1: 2.4 μM, 4 hours exposure
Experimental: For immunohistochemical labeling, cells were plated at a density of 1.2×10^5 cells per 1.2 cm^2 coverslip in a 12-well plate and cultured in DMEM containing 10% heat-inactivated fetal bovine serum for 4-5 days. One day before peptide exposure, media was changed to DMEM/1% serum. Cells were exposed to peptide for 4 or 12 hours at 37° C. Cover slips were washed three times with PBS containing calcium (Gibco), fixed in cold methanol and blocked with 1% bovine serum albumin before staining Fluorophor was conjugated to propargyl-glycine labeled peptides using a ClickIt EdU kit according to the manufacturer's instructions (omitting cell exposure to EdU). For immunofluorescent staining, cells were incubated for one hour with primary antibodies (1:500 polyclonal anti-claudin 1 antibody and 1:400 monoclonal anti-occludin), washed with PBS and stained with Alexafluor®-488 anti-rabbit and Alexafluor®-568 anti-mouse secondary antibodies (1:1000). […] Coverslips were mounted in Vectastain containing DAPI and imaged on an Olympus BX60 fluorescence microscope. Cldn1 and Ocln images were taken using SPOT software with no further digital manipulation.

16HBE cells = test: WST1 cytotoxicity assay in 16HBE cells; format: cell-based, Human; conditions: for WST1 metabolism (cytotoxicity) of equilibrated peptides: 16HBE sub-confluent, 0.024-12 μM, 1, 4, 12 or 24 hour exposure; for concentration of freshly diluted peptide at which cytotoxicity was observed (WST1): 16HBE, stocks diluted and added without incubation, 12 h exposure
Experimental: For cytotoxicity measurements, cells were plated with a density of 7,500 per well in a 96-well plate and grown for one day before acclimation in DMEM containing 1% heat-inactivated fetal bovine serum. Cells were exposed to vehicle or peptide for 4, 12 or 24 hours. Control cells were lysed with 1% Triton X-100 for 15 minutes as a negative control. 10× WST1 stock (Clontech) was added to each well, and cells incubated for 12 minutes at 37° C. Media was removed and WST1 absorbance immediately read on a Perkin Elmer UV/Vis plate reader (WST1 A450−background A620). Error is presented as the standard error of the mean, and significance relative to the untreated control indicated (P<0.05). For cytotoxicity experiments, n=4. Representative data is presented.

[4] = tested on: influenza hemagglutinin (HA); test: Intranasal immunization with influenza hemagglutinin (HA); conditions: mice; for serum antibody titers to HA: day 18, 28 and 35; for HA-specific antibodies (IgG and IgA) in bronchial lavage: day 48
Experimental: Immunization experiments with influenza hemagglutinin were carried out as follows. Mice (4 mice per group) were treated in the nasal cavity with vehicle alone (0.006% Pluronic F127 in saline), vehicle plus influenza hemagglutinin (HA), or vehicle plus HA plus a permeabilizing agent (peptides 1A or 2A, or semen-derived enhancer of virus infection (SEVI)). Antibody titers to HA in serum were assessed at day 18, 28, and 35 after treatment, and HA-specific IgG and IgA were determined in bronchial lavage at day 48 post treatment.

16HBE TJs [5] = test: Permeability flux assay (sodium fluorescein, FITC-dextran FD-40, labeled Synagis mAb) across 16HBE cultures; format: cell-based, Human; conditions: for increase in FITC-dextran 40 kDa (FD-40) permeability / increase in fluorescein (0.4 kDa) permeability: 24 hours exposure, relative to vehicle
Experimental: as §1, §2

nasal cavity = test: Luciferase permeability experiment in mouse nasal cavity; format: in vivo; conditions: mice, intranasal peptide, luciferase applied after 12 or 24 hours
Experimental: Luciferase permeability experiments were carried out as follows. […] After 12 or 24 hours, a solution of 10 micrograms luciferase was applied. Mice were then imaged at various time points to determine the amount of luciferase remaining in the nasal cavity.

[6] = tested on: Caco-2, HEK-293, and rat perineural TJ barriers; conditions: Caco-2, HEK-293, rat perineural in vivo; cited from earlier work
[7] = tested on: T84 (transplantable human carcinoma) cells; conditions: cited from earlier work

Aβ40: unrelated peptide tested in the same concentration range [reference compound]
effect of unrelated peptides on TER (16HBE TJs [1]; 16HBE): did not decrease TER

Aβ42: Amyloid Beta-Peptide 1-42 [reference compound]
critical concentration (Cr) [2]: about 1 μM | TJ disruption (16HBE TJs [1]; 2.4 μM): disrupt TJs, but to a lesser extent than peptides 1a and 2a

FKFEFKFE-NH2 [(FKFE)2, unrelated peptide tested in the same concentration range, reference compound]
effect of unrelated peptides on TER (16HBE TJs [1]; 16HBE): did not decrease TER

H-SILTGVSTLDQSLKQLSNFSQAVSTQSSR-NH2 [Peptide 2a]
Cldn1 and Ocln localization [3]: disturbed | WST1 metabolism (cytotoxicity) of equilibrated peptides (16HBE cells): No alterations in WST1 metabolism | concentration of freshly diluted peptide at which cytotoxicity was observed (WST1) (16HBE cells): 200 nM | serum antibody titers to HA [4]: trend of enhancement | HA-specific antibodies (IgG and IgA) in bronchial lavage [4]: trend of enhancement | enhancement of labeled therapeutic antibody (Synagis, 168 kD) penetration (16HBE TJs [5]; 2.4 μM peptide): 4.9±0.4 fold | increase in FITC-dextran 40 kDa (FD-40) permeability (16HBE TJs [5]; 2.4 μM peptide): 25.3±1.6 fold | increase in fluorescein (0.4 kDa) permeability (16HBE TJs [5]; 2.4 μM peptide): 5.6±0.4 fold | enhancement of labeled therapeutic antibody (Synagis, 168 kD) penetration (16HBE TJs [5]; 12 μM peptide): 5.6±0.9 fold | increase in FITC-dextran 40 kDa (FD-40) permeability (16HBE TJs [5]; 12 μM peptide): 30.5±3.0 fold | increase in fluorescein (0.4 kDa) permeability (16HBE TJs [5]; 12 μM peptide): 16.4±2.2 fold | drop in TER (16HBE TJs [1]; 16HBE, 24 hours): 80±2.4% | decrease in TER (16HBE TJs [1]; 16HBE, 12 μM peptide, 24 hours): 92±1.6% | recovery of barrier function (TER) after peptide removal (16HBE TJs [1]; 16HBE): barrier function recovers

H-SSVSQSTGQIQSKVFDSLLNLSSTLQATR-NH2 [Peptide 1a]
Cldn1 and Ocln localization [3]: disturbed | WST1 metabolism (cytotoxicity) of equilibrated peptides (16HBE cells): No alterations in WST1 metabolism | concentration of freshly diluted peptide at which cytotoxicity was observed (WST1) (16HBE cells): 1200 nM | luciferase lost from the nasal cavity (nasal cavity): trend of higher amounts of luciferase lost from the nasal cavity | serum antibody titers to HA [4]: trend of enhancement | HA-specific antibodies (IgG and IgA) in bronchial lavage [4]: trend of enhancement | enhancement of labeled therapeutic antibody (Synagis, 168 kD) penetration (16HBE TJs [5]; 2.4 μM peptide): 2.5±0.2 fold | increase in FITC-dextran 40 kDa (FD-40) permeability (16HBE TJs [5]; 2.4 μM peptide): 11.2±0.9 fold | increase in fluorescein (0.4 kDa) permeability (16HBE TJs [5]; 2.4 μM peptide): 4.1±0.9 fold | enhancement of labeled therapeutic antibody (Synagis, 168 kD) penetration (16HBE TJs [5]; 12 μM peptide): 3.2±0.4 fold | increase in FITC-dextran 40 kDa (FD-40) permeability (16HBE TJs [5]; 12 μM peptide): 16.8±1.9 fold | increase in fluorescein (0.4 kDa) permeability (16HBE TJs [5]; 12 μM peptide): 6.7±1.3 fold | drop in TER (16HBE TJs [1]; 16HBE, 24 hours): 65.9±6.9% | time to statistically significant (P<0.05) decrease in TER (16HBE TJs [1]; 16HBE, 12 μM peptide): ≤ 8 h | recovery of barrier function (TER) after peptide removal (16HBE TJs [1]; 16HBE): barrier function recovers | lowest concentration giving a statistically significant (P<0.05) decrease in TER (16HBE TJs [1]; 16HBE, by 24 hours): 240 nM

Rat Cldn1 (53-81, C54,64S) peptide: rat claudin-1 peptide with Cys to Ser, of Zwanziger et al. (SSVSQSTGQIQSKVFDSLLNLNSTLQATR; UniProt P56745 53-81, looked up, variant C54S C64S)
concentration disrupting TJ barriers [6]: 200 to 300 µM

SILTGVSTLDQSLKQLSNFSQAVSTQSSR [Peptide 2b, labeled scrambled peptide 2 with N-terminal biotin-N-propargyl glycine tag]
co-localization of labeled peptide with endogenous Cldn1 [3]: co-localize with endogenous Cldn1 | barrier disruption by labeled peptides, measured by decreased TER (16HBE TJs [1]; 16HBE): cause disruption of barrier

SSVSQSTGQIQSKVFDSLLNLSSTLQATR [Peptide 1b, labeled peptide 1 with N-terminal biotin-N-propargyl glycine tag]
co-localization of labeled peptide with endogenous Cldn1 [3]: co-localize with endogenous Cldn1 | barrier disruption by labeled peptides, measured by decreased TER (16HBE TJs [1]; 16HBE): cause disruption of barrier

rat Cldn1 (53-80) peptide: rat claudin-1 extracellular loop peptide of Mrsny et al. (SCVSQSTGQIQCKVFDSLLNLNSTLQAT; UniProt P56745 53-80, looked up, fragment)
concentration able to disrupt intact TJs [7]: 200 µM | concentration shown to inhibit calcium-induced TJ formation [7]: 25 µM
